Test results taken from PubChem BioAssay (NCI).
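Dose response: 5 concentrations. Exposure: 48 h. Format: 96-well plates. Endpoint: linear interpolation; highest concentration if not reached. GI50 is the concentration that inhibits growth by half. TGI is the concentration that stops growth completely.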 *1 amine or outer side, *2 acyl side, *3 side chain or, on linkers, in order; H or OH if unused. Where a SMILES comes first, the peptide text is derived from it. [ ]: non-standard residue; d: D form. The star is where a group is joined. X11 = C/C=C/CC(C)C(O)[C@H](N[*:1])C(=O)[*:2]; Decanoyl = CCCCCCCCCC(=O)*; Leu(ol) = CC(C)C[C@H](N)CO; Iva = CC[C@](C)(N)C(=O)O; Aib = CC(C)(N)C(=O)O

Columns and labels:
Experiment in all cases: NCI anticancer screen, dose series, 48 h
SF-268 CNS = tested on: SF-268 CNS
SK-MEL-2 melanoma = tested on: SK-MEL-2 melanoma
MALME-3M melanoma = tested on: MALME-3M melanoma
RXF 393 renal = tested on: RXF 393 renal
IGROV1 ovarian = tested on: IGROV1 ovarian
HOP-92 NSCLC = tested on: HOP-92 NSCLC
K-562 leukemia = tested on: K-562 leukemia
EKVX NSCLC = tested on: EKVX NSCLC
SR leukemia = tested on: SR leukemia
SN12C renal = tested on: SN12C renal
HOP-62 NSCLC = tested on: HOP-62 NSCLC
HT29 colon = tested on: HT29 colon
HCC-2998 colon = tested on: HCC-2998 colon
HS 578T breast = tested on: HS 578T breast
NCI-H460 lung = tested on: NCI-H460 lung
SK-MEL-28 melanoma = tested on: SK-MEL-28 melanoma
NCI/ADR-RES ovarian = tested on: NCI/ADR-RES ovarian
MCF7 breast = tested on: MCF7 breast
OVCAR-3 ovarian = tested on: OVCAR-3 ovarian
CCRF-CEM leukemia = tested on: CCRF-CEM leukemia
SNB-75 CNS = tested on: SNB-75 CNS
MDA-MB-231 breast = tested on: MDA-MB-231 breast
SNB-19 CNS = tested on: SNB-19 CNS
SK-MEL-5 melanoma = tested on: SK-MEL-5 melanoma
M14 melanoma = tested on: M14 melanoma
U251 CNS = tested on: U251 CNS
OVCAR-4 ovarian = tested on: OVCAR-4 ovarian
BT-549 breast = tested on: BT-549 breast
MOLT-4 leukemia = tested on: MOLT-4 leukemia

Q: With `C/C=C/CC(C)C(O)[C@H](NC(=O)[C@@H]1CCCN1C(=O)C(C)(C)NC(=O)CCCCCCCCC)C(=O)N[C@@](C)(CC)C(=O)N[C@@H](CCC(N)=O)C(=O)N[C@H](CCC(N)=O)C(=O)NC(C)(C)C(=O)NC(C)(C)C(=O)N[C@@H](CCC(N)=O)C(=O)N[C@H](CC(C)C)C(=O)N[C@H](CO)CC(C)C` (stereo partly drawn) (Decanoyl-[Aib]P[X11][Iva]Q[dQ][Aib][Aib]Q[dL][Leu(ol)]) as the compound, how does the GI50 (SF-268 CNS) read?
A: 1830 nM

Q: What about the TGI (SF-268 CNS) of the same compound?
A: 3.56 µM

Q: What about the GI50 (SK-MEL-2 melanoma) of the same compound?
A: 1810 nM

Q: What about the TGI (SK-MEL-2 melanoma) of the same compound?
A: 3.49 µM

Q: What about the GI50 (MALME-3M melanoma) of the same compound?
A: 1560 nM

Q: What about the TGI (MALME-3M melanoma) of the same compound?
A: 2960 nM

Q: And the GI50 (RXF 393 renal)?
A: 2150 nM

Q: And the TGI (RXF 393 renal)?
A: 4.01 µM

Q: What about the GI50 (IGROV1 ovarian) of the same compound?
A: 2340 nM

Q: And the TGI (IGROV1 ovarian)?
A: 6.31 µM

Q: And the GI50 (HOP-92 NSCLC)?
A: 1840 nM

Q: And the TGI (HOP-92 NSCLC)?
A: 4.08 µM

Q: And the GI50 (K-562 leukemia)?
A: 1950 nM

Q: What about the TGI (K-562 leukemia) of the same compound?
A: 4 µM

Q: What about the GI50 (EKVX NSCLC) of the same compound?
A: 1850 nM

Q: What about the TGI (EKVX NSCLC) of the same compound?
A: 3.77 µM

Q: What about the GI50 (SR leukemia) of the same compound?
A: 1370 nM

Q: What about the TGI (SR leukemia) of the same compound?
A: 3.07 µM

Q: What about the GI50 (SN12C renal) of the same compound?
A: 2170 nM

Q: What about the TGI (SN12C renal) of the same compound?
A: 4.92 µM

Q: And the GI50 (HOP-62 NSCLC)?
A: 1990 nM

Q: What about the TGI (HOP-62 NSCLC) of the same compound?
A: 4.06 µM

Q: And the GI50 (HT29 colon)?
A: 2410 nM

Q: And the TGI (HT29 colon)?
A: 5.68 µM

Q: What about the GI50 (HCC-2998 colon) of the same compound?
A: 2160 nM

Q: What about the TGI (HCC-2998 colon) of the same compound?
A: 4.63 µM

Q: And the GI50 (HS 578T breast)?
A: 1780 nM

Q: What about the TGI (HS 578T breast) of the same compound?
A: 3.49 µM

Q: What about the GI50 (NCI-H460 lung) of the same compound?
A: 1860 nM

Q: And the TGI (NCI-H460 lung)?
A: 3.45 µM

Q: And the GI50 (SK-MEL-28 melanoma)?
A: 1760 nM

Q: What about the TGI (SK-MEL-28 melanoma) of the same compound?
A: 3.16 µM

Q: What about the GI50 (NCI/ADR-RES ovarian) of the same compound?
A: 2040 nM

Q: And the TGI (NCI/ADR-RES ovarian)?
A: 4.45 µM

Q: What about the GI50 (MCF7 breast) of the same compound?
A: 1810 nM

Q: And the TGI (MCF7 breast)?
A: 3.51 µM

Q: What about the GI50 (OVCAR-3 ovarian) of the same compound?
A: 2020 nM

Q: And the TGI (OVCAR-3 ovarian)?
A: 4.35 µM

Q: What about the GI50 (CCRF-CEM leukemia) of the same compound?
A: 2040 nM

Q: What about the TGI (CCRF-CEM leukemia) of the same compound?
A: 4.4 µM

Q: And the GI50 (SNB-75 CNS)?
A: 1480 nM

Q: And the TGI (SNB-75 CNS)?
A: 2980 nM

Q: What about the GI50 (MDA-MB-231 breast) of the same compound?
A: 1710 nM

Q: What about the TGI (MDA-MB-231 breast) of the same compound?
A: 3.16 µM

Q: And the GI50 (SNB-19 CNS)?
A: 1700 nM

Q: What about the TGI (SNB-19 CNS) of the same compound?
A: 3.15 µM

Q: And the GI50 (SK-MEL-5 melanoma)?
A: 1790 nM

Q: And the TGI (SK-MEL-5 melanoma)?
A: 3.3 µM

Q: And the GI50 (M14 melanoma)?
A: 1810 nM

Q: And the TGI (M14 melanoma)?
A: 3.44 µM

Q: What about the GI50 (U251 CNS) of the same compound?
A: 1750 nM

Q: And the TGI (U251 CNS)?
A: 3.36 µM

Q: And the GI50 (OVCAR-4 ovarian)?
A: 3.91 µM

Q: What about the TGI (OVCAR-4 ovarian) of the same compound?
A: 9.05 µM

Q: And the GI50 (BT-549 breast)?
A: 1980 nM

Q: And the TGI (BT-549 breast)?
A: 3.67 µM

Q: What about the GI50 (MOLT-4 leukemia) of the same compound?
A: 2330 nM

Q: And the TGI (MOLT-4 leukemia)?
A: 4.93 µM
